Experimental data reported in article PMC4681141, “Antiplasmodial activity, in vivo pharmacokinetics and anti-malarial efficacy evaluation of hydroxypyridinone hybrids in a mouse model” (Malaria Journal, 2015).
Read-outs that look alike come from different tables or passages of the source.

Columns and labels:
[1] = tested on: Plasmodium berghei (ANKA strain); experiment: In vivo anti-malarial efficacy, Peters' 4-day test; design: species or system C57BL/6 mice; settings: for % reduction of parasitemia Day 9: vs placebo
Procedure: The chloroquine-sensitive Plasmodium berghei (ANKA strain) was used to assess in vivo anti-malarial efficacy of the test compounds. The parasites were maintained in a C57BL/6 mouse by inoculation with 250 µl of a 1:1 (v/v) suspension of erythrocytes infected with P. berghei in phosphate buffered saline (PBS). On the day of the experiment the host mouse was anaesthetized intraperitoneally with a mixture of ketamine (120 mg/kg) and xylazine (16 mg/kg). Whole blood from the host mouse was drawn by cardiac puncture into a Vacuette® heparin tube and a suspension of P. berghei parasitized erythrocytes (1 × 10^7) in PBS was prepared and the test mice were infected with 200 µl of this suspension intraperitoneally.
Evaluation of the curative potential of the test compounds was performed using Peters’ 4-day test as described. The mice were dosed orally at 20 and 40 mg/kg and intravenously at 4 and 8 mg/kg 2 h post-infection and for three consecutive days (D0 to D3). On the first day (D0), blood samples were collected serially from each mouse at 0.5, 1, 3, and 7 h post-dosing in order to provide quantitative measurements of drug exposure which is needed for the sound interpretation of the efficacy of the anti-malarials. […] The mice were also dosed orally with PBS as a control. The parasitaemia was determined from the […] (D4) by preparing thin blood films from the tail of each mouse and the smears were fixed with methanol and stained with Giemsa. This was repeated every 2–3 days to monitor the efficacy of the test compounds. The formula used to calculate % parasitaemia and % reduction is described below, respectively. The data for % parasitaemia and % reduction of parasitaemia is presented in Table 4. %Parasitaemia =No.ofparasitizedRBCoutof500erythrocytes/Totalno.ofRBCcounted×100 %Reduction =Parasitamiaofplacebo-Parasitamiaoftestcompound/Parasitamiaofplacebo×100

P. falciparum D10 = experiment: In vitro antiplasmodial pLDH assay, chloroquine-sensitive strain D10; type: cell-based; settings: Plasmodium falciparum, read-out: IC50 against D10
Procedure: (§1) The parasites were continuously cultured in vitro according to the method described by Trager and Jensen but with modifications. The cultures were maintained at 37 °C in O-positive (O^+) human erythrocytes in complete culture medium, which contained RPMI 1640 (Gibco-BRL Laboratories) growth medium supplemented with 25 mM 4-(2-hydroxyethyl)piperazine-1-ethanesulfonic acid (HEPES) (Sigma-Aldrich Chemical Company) buffer, 22 mM glucose (Sigma), 5 g/l albumax (Gibco-BRL Laboratories), 25 mM sodium carbonate (Sigma) and 0.3 mM hypoxanthine (Sigma). In order to control microbial contamination […] gentamicin (Sigma) was added to the culture medium, and to obtain a loosely synchronous ring stage, 5 % sterile aqueous D-sorbitol (Sigma) was used. The antiplasmodial assay was initiated with the parasites in the trophozoite stage and with a parasitaemia and haematocrit of 2 %.
(§2) Non-parasitized erythrocytes were used as a negative control and parasitized erythrocytes, without any test compound, were used as positive control. A full day dose–response was performed for all compounds to determine the concentration inhibiting 50 % of parasite growth (IC50 value). The plates were incubated for 48 h at 37 °C in a gassing chamber containing a mixture of 5 % CO2, 3 % O2 and 92 % […]. In order to quantify parasite viability and to determine the effect of the compounds on the parasite, a parasite lactate dehydrogenase (pLDH) assay was used as described by Makler et al., but with modifications.

P. falciparum K1 = experiment: In vitro antiplasmodial pLDH assay, chloroquine-resistant strain K1; type: cell-based; settings: Plasmodium falciparum, read-out: IC50 against K1
Procedure: as §1, §2

P. falciparum 3D7 = experiment: In vitro antiplasmodial pLDH assay, chloroquine-sensitive strain 3D7; type: cell-based; settings: Plasmodium falciparum, read-out: IC50 against 3D7
Procedure: as §1, §2

P. falciparum Dd2 = experiment: In vitro antiplasmodial pLDH assay, chloroquine-resistant strain Dd2; type: cell-based; settings: Plasmodium falciparum, read-out: IC50 against Dd2
Procedure: as §1, §2

[2] = design: method as in earlier work; settings: mice; ref 25 (Salako); cited from earlier work
[3] = Drug exposure in P. berghei-infected mice (blood concentrations on D0); type: in vivo, C57BL/6 mice; settings: oral 20 and 40 mg/kg
[4] = Pharmacokinetic study in uninfected C57BL/6 mice (LC-MS/MS of blood); type: in vivo; settings: for clearance / Vd: iv; for Vd: read-out: Vss; for AUC(0-inf) / half-life: mouse; for blood levels after oral dosing: oral 20 mg/kg, uninfected mice
Procedure: A comprehensive pharmacokinetic (PK) study of compound 1 and 2 was performed on 10-week old male and female C57BL/6 mice (20–30 g) obtained from the University of Cape Town Medical School Animal Unit. The mice were housed in ventilated cages at room temperature (approximately 22 °C) with constant supply of food and water and were monitored twice daily. The study was authorized by the Faculty of Health Science Animal Research Ethics Committee before commencement: Reference No. 012/020. All the work was performed according to the guidelines established by Austin et al.. […] In each experiment a group of five animals were dosed orally (10 ml/kg) at 20 mg/kg and intravenously (5 ml/kg) via the dorsal penile vein at 4 mg/kg under anaesthesia. For oral dosage, a gavage needle was used for the administration of test compounds directly into the lower oesophagus or stomach. […] Lithium heparin-coated MiniCollect® Plasma Tubes (Lasec, South Africa) were used to collect the blood samples. The collected blood samples were placed on ice immediately after sampling, and were frozen at −80 °C until analysis. The blood samples stored at −80 °C were thawed at room temperature and then mixed by vortex to ensure homogeneity. Twenty µl of blood was mixed with 50 µl Milli-Q water (Millipore, USA) and 150 µl acetonitrile (Merck). The mixture was vortexed for 15 s, sonicated for 10 min and centrifuged at 13,000g for 5 min. The supernatant was transferred to a flat-bottomed glass insert and placed in a glass vial and placed in the autosampler for analysis. A liquid chromatography–mass spectrometry (LC/MS/MS) system was employed for the quantification of the compounds in mouse blood. The LC system employed was an ultra-fast liquid chromatography (UFLC) system (Shimadzu) and the separation of the compounds was performed on a Phenomenex, Luna 5 μm PFP (2), 100 Å, 50 mm × 2 mm analytical column. The mobile phase A consisted of 0.1 % formic acid in water (v/v) and mobile phase B consisted of acetonitrile. The flow rate was set at 500 µl/min and the temperature of the column was maintained at 40 °C. […] The detection of the compounds was performed on an AB Sciex 3200 Q-Trap mass spectrometer which was operated at unit resolution in the multiple reaction monitoring (MRM) mode. The calibration range for all the compounds was between 7.8 and 1000 ng/ml and the accuracy (% Nom) for the calibration curves was between 90.3 and 104.0 %. […] Non-compartmental analysis was performed on each individual set of data using PK Solutions 2.0 Pharmacokinetic Analysis Software (Summit Research Services, Montrose, USA). The following PK parameters were calculated: apparent terminal half-life [t½ (min)], total exposure [AUC0–α (µM min)], volume of distribution (l/kg) and plasma clearance [CL (l/min/kg)].

[5] = tested on: P. falciparum chloroquine-sensitive and -resistant strains; type: cell-based, Plasmodium falciparum; settings: highest CQR IC50 value / lowest CQS IC50 value
Source text: This value provides a quantitative measurement of the antiplasmodial activity against CQR strains relative to that against CQS strains. The higher the RI value, the higher the level of resistance.

[6] = Toxicity observed in dosed mice; type: in vivo; settings: dosed orally and intravenously
Procedure: They both presented poor PK properties following oral administration. However, the LC–MS/MS assay only detected the parent compound and no assays were conducted to measure or identify any possible metabolites. The decision to perform efficacy studies was based on the possibility that compounds 1 and 2 may have high first pass effect which may cause low bioavailability. After the infected mice were dosed orally and intravenously with compound 1 and 2, the blood concentrations were measured in P. berghei-infected mice at different time intervals to measure the exposure of the infected mice to the drug. […] High toxicity was also detected when dosed orally and intravenously. The PK studies were only conducted for 9 h, and therefore the symptoms of toxicity were not severe. However, with efficacy studies the mice are dosed every day for 4 days, and this might cause distress to the mice because the toxic effect of the drug will be more severe. The efficacy study for compound 2 is not reported in this paper.

[7] = Oral 10 mg/kg/day, 4 days (reference drug)
[8] = chloroquine-sensitive strain D10, 48 h, pLDH, mean of three independent experiments
[9] = chloroquine-resistant strain K1, 48 h, pLDH, mean of three independent experiments
[10] = both sexes, C57BL/6, mouse, whole blood, 4 mg/kg, intravenous 4 mg/kg, uninfected C57BL/6 mice, blood
[11] = both sexes, whole blood, intravenous 4 mg/kg, uninfected C57BL/6 mice, blood
[12] = intravenous 4 mg/kg, uninfected C57BL/6 mice, blood, 4 mg/kg
[13] = chloroquine-sensitive strain 3D7, 48 h, pLDH, mean of three independent experiments
[14] = chloroquine-resistant strain Dd2, 48 h, pLDH, mean of three independent experiments

## CCN(CC)CCCC(C)Nc1ccnc2cc(Cl)ccc12 (stereo not drawn) [Chloroquine, reference compound]
[1]; [7]
  Average % parasitemia Day 4: 0%
  Average % parasitemia Day 6: 0%
  Average % parasitemia Day 9: 2 ± 1.6%
  % reduction of parasitemia Day 9: 92.0 ± 0.4%
P. falciparum D10; D10, 48 h
  IC50: 0.023 µM
P. falciparum K1; K1, 48 h
  IC50: 0.279 ± 0.002 µM
P. falciparum 3D7; 3D7, 48 h
  IC50: 0.019 µM
P. falciparum Dd2; DD2, 48 h
  IC50: 0.18 ± 0.01 µM
[2]
  half-life: 7 h
  oral bioavailability: 79–90%

## O=c1cc(CNCCCCCCNc2ccnc3cc(Cl)ccc23)n(C2CC2)cc1OCc1ccccc1 [Compound 1]
[1]; IV 4 mg/kg/day, 4 days
  Average % parasitemia Day 4: 0.4 ± 0.4%
  Average % parasitemia Day 6: 1.8 ± 1.4%
  Average % parasitemia Day 9: 8.1 ± 5%
[1]; IV 4 mg/kg/day, 4 days, 4 mg/kg/day
  % reduction of parasitemia Day 9: 61.9 ± 26%
[1]; IV 4 mg/kg/day, 4 days, listed as compound 1, 4 mg/kg/day
  % reduction of parasitemia Day 9: 62%
[1]; IV 8 mg/kg/day, 4 days
  Average % parasitemia Day 4: 0%
  Average % parasitemia Day 6: 0.9 ± 0.9%
  Average % parasitemia Day 9: 5.1 ± 1.7%
[1]; IV 8 mg/kg/day, 4 days, 8 mg/kg/day
  % reduction of parasitemia Day 9: 82.9 ± 2.5%
[1]; IV 8 mg/kg/day, 4 days, listed as compound 1, 8 mg/kg/day
  % reduction of parasitemia Day 9: 83%
[1]; Oral 20 mg/kg/day, 4 days
  Average % parasitemia Day 4: 5.3 ± 3.9%
  Average % parasitemia Day 6: 22.7 ± 10%
  Average % parasitemia Day 9: 24.2 ± 5.6%
  % reduction of parasitemia Day 9: 3.7 ± 5.6%
[1]; Oral 40 mg/kg/day, 4 days
  Average % parasitemia Day 4: 5.9 ± 2%
  Average % parasitemia Day 6: 10.7 ± 5%
  Average % parasitemia Day 9: 48.6 ± 12%
  % reduction of parasitemia Day 9: −93.8 ± 49.3%
[1]; oral groups (20 and 40 mg/kg/day), day 4
  parasitaemia on day 4 in mice dosed orally: ~5%
[3]
  blood concentration levels in infected mice dosed orally: below the detection level
P. falciparum D10; [8]
  IC50: 0.047 ± 0.01 µM
P. falciparum K1; [9]
  IC50: 0.505 ± 0.1 µM
[4]; [10]
  clearance: 28 mL/min/kg
  Vd: 20 L/kg
[4]; both sexes, C57BL/6, mouse, whole blood, intravenous 4 mg/kg, 9 h post-dosing, read-out: blood level after 9 h
  concentration at 9 h: 160 nM
[4]; [11]
  AUC(0-inf): 3.27 µM·h
  half-life: 4.3 ± 1.02 h
[4]; [12]
  CL: 27.6 ± 8 mL/min/kg
  Vss: 20.1 ± 6 L/kg
[4]; mice, oral dosing, in words
  oral bioavailability: poor oral bioavailability
[4]
  blood levels after oral dosing: below the LOQ
[5]
  RI (resistance index): 10.7
P. falciparum 3D7; [13]
  IC50: 0.064 ± 0.02 µM
P. falciparum Dd2; [14]
  IC50: 0.463 ± 0.12 µM

## CCc1c(OCc2ccccc2)c(=O)ccn1CCCCCCNc1ccnc2cc(Cl)ccc12 [Compound 2]
[3]
  blood concentration levels in infected mice dosed orally: below the detection level
[6]
  toxicity: High toxicity
P. falciparum D10; [8]
  IC50: 0.122 ± 0.03 µM
P. falciparum K1; [9]
  IC50: 0.089 ± 0.01 µM
[4]; [10]
  clearance: 366 ± 46.6 mL/min/kg
  Vd: 154.1 ± 1 L/kg
[4]; both sexes, C57BL/6, mouse, whole blood, intravenous 4 mg/kg, 2 h post-dosing, read-out: blood level after 2 h
  concentration at 2 h: 30 nM
[4]; [11]
  AUC(0-inf): 0.42 µM·h
  half-life: 0.7 ± 0.2 h
[4]
  blood levels after oral dosing: below the LOQ
[5]
  RI (resistance index): 2.2
P. falciparum 3D7; [13]
  IC50: 0.041 ± 0.02 µM
P. falciparum Dd2; [14]
  IC50: 0.076 ± 0.01 µM
